Assay results taken from publication PMC11329928, “Design, synthesis and structure-activity relationship (SAR) studies of an unusual class of non-cationic fatty amine-tripeptide conjugates as novel synthetic antimicrobial agents” (Frontiers in Pharmacology, 2024).

Tests used:
[1] = RP-HPLC retention time used to determine hydrophobicity; format: physicochemical; settings: analytical RP-HPLC, C18 Sunfire column (4.6 mm × 150 mm, 3.5 μm); A = 0.05% TFA in water, B = acetonitrile; 10% to 100% B in 20 min then isocratic 100% B 10 min; 217 and 254 nm; used as measure of hydrophobicity
Protocol: The purity of the lipopeptides was checked by analytical RP-HPLC on an Agilent Infinity instrument equipped with a Diode Array and a C18 Sunfire column (4.6 mm × 150 mm, 3.5 μm). As mobile phase A:B mixtures were used, where A = 0.05% TFA in water and B = acetonitrile. The samples were analyzed at 217 and 254 nm in a gradient from 10% of B to 100% of B in 20 min followed by isocratic 100% of B in 10 min.
Retention times were used to determine the hydrophobicity ([Neubauer et al., 2020]). HRMS (EI+) was carried out in an Agilent 6,520 Accurate-Mass Q-TOF LC/MS spectrometer using water/acetonitrile mixtures. Results can be found in Supplementary Section S3, S4.

[2] = system: Streptococcus pneumoniae R6; experiment: Growth inhibition / lysis screening of planktonic cultures (OD550/600); format: cell-based; parameters: key: (+++) full inhibition; (++) partial inhibition; (+) growth retardation; -: (−) no effect; settings: S. pneumoniae R6, 50 and 100 μM compound added at early logarithmic phase (T1), OD550/600 followed 10 h, 37°C
Protocol: (§1) Planktonic cultures of selected pathogens (S. pneumoniae R6, S. pyogenes ^T, Staphylococcus aureus ^T, Escherichia coli DH10B, and Pseudomonas aeruginosa PAO1 strains) on early logarithmic-phase (T1) were assayed for their sensitivity to a broad range of DICAM compounds, as indicated in Table 1. Their bacteriostatic or lytic effect was first tested by measuring the variation of the OD550/600 as a function of time (10 h) when (50/100 μM) DICAMs were added, compared to untreated controls. The screening results, summarized in Table 1, evidenced that a potent antimicrobial activity may exist even when the negative charge of the peptide was higher than in the prototype compounds.
(§2) Susceptibility to DICAMs was first tested by growth-inhibition assays at 50 and 100 μM of compound. Briefly, working solutions at 5 mM or 10 mM DICAM in pure DMSO were prepared from DICAM stocks (40 mM in pure DMSO) and diluted with fresh culture medium to 5× the desired final concentration. Aliquots (50 µL) of these solutions were added to 200 µL of bacterium cultures grown to early exponential phase (OD550/600 c. a. 0.15–0.2 in sterile 96-well plates (Cultek, Spain). Incubation continued for 10 h at 37°C and turbidity (OD550/600) values were measured every 20 min to monitor growth and lysis, using a VersaMax microplate reader (Molecular Devices; United Kingdom). Next, the activity dependence on DICAM’s dose was examined by measuring the turbidity of treated and untreated cultures as a function of time. Also, the decay of bacterial viability (CFU/mL) at selected times of treatment was assessed by colony counting on LB-agar or TSA plates after overnight incubation at 37°C. By default, 10 μL of 10-fold serially diluted samples were plated, which set the lower detection limit at 10^2 CFU/mL (10^1 CFU/mL when 100 μL of the undiluted sample was seeded).

[3] = system: Escherichia coli DH10B; experiment: Growth inhibition screening of planktonic cultures (OD550/600); format: cell-based; parameters: key: (+++) full inhibition; (++) partial inhibition; (+) growth retardation; -: (−) no effect; settings: E. coli DH10B, 50 and 100 μM compound added at T1, OD550/600 followed 10 h, 37°C
Protocol: as §1, §2

[4] = system: Pseudomonas aeruginosa PAO1; experiment: as above; format: cell-based; parameters: key: (+++) full inhibition; (++) partial inhibition; (+) growth retardation; -: (−) no effect; settings: P. aeruginosa PAO1, 50 and 100 μM compound added at T1, OD550/600 followed 10 h, 37°C
Protocol: as §1, §2

[5] = system: Staphylococcus aureus T; experiment: as above; format: cell-based; parameters: key: (+++) full inhibition; (++) partial inhibition; (+) growth retardation; -: (−) no effect; settings: S. aureus T, 50 and 100 μM compound added at T1, OD550/600 followed 10 h, 37°C
Protocol: as §1, §2

[6] = system: Streptococcus pyogenes T; experiment: as above; format: cell-based; parameters: key: (+++) full inhibition; (++) partial inhibition; (+) growth retardation; -: (−) no effect; settings: S. pyogenes T, 50 and 100 μM compound added at T1, OD550/600 followed 10 h, 37°C
Protocol: as §1, §2

[7] = Calcein release from LUVs, all tested compositions; settings: 10 μM DICAM, 25°C, vesicle buffer pH 7.4, calcein release
Protocol: (§3) LUVs were prepared for calceine liberation assays as described ([Chongsiriwatana and Barron, 2009]). Lipid composition (mole %) of LUVs was: POPG (100), POPG:CL (80:20), POPG:CL:DOPE ([…]), and POPG:CL:GlcDAG (75:5:20). Briefly, the nitrogen-dried lipid mixture was dissolved at 1.25 mM with 100 mM calceine in vesicle buffer (10 mM Tris, 140 mM NaCl, 0.5 mM EDTA, pH 7.4) followed by five thaw-freeze cycles. Calceine-entrapped LUVs were prepared by extrusion through 100 nm polycarbonate membranes (Avanti Polar Lipids). Non-entrapped calceine was separated from LUVs by gel filtration on a Sephacryl® S200-HR column (Sigma). LUVs permeabilization was monitored at 25°C by fluorescence emission at 550 nm (λex = 480 nm) as a function of time in a Fluoromax-4 spectrofluorometer (Horiba, France) using agitation. Signal stabilization of samples (1,500 µL vesicle buffer plus 45 µL LUVs) was recorded for 5 min before 10 µM final DICAM addition, and calcein release was monitored for a maximum of 20 min. After incubation, samples were solubilized in Triton X-100 (0.025%) and the fluorescence signal recorded thereafter was used to normalize the entire data set. Solubilization of DICAM-untreated LUVs in Triton X-100 was used as a positive control. No perturbation was detected in controls containing DMSO.

[8] = system: S. pyogenes T membrane; experiment: Membrane permeation, SYTOX Green; format: cell-based, Streptococcus pyogenes; settings: S. pyogenes T in PBS pH 7.2, 37°C
Protocol: (§4) Permeation and depolarization of S. pyogenes ^T membrane by DICAMs were assayed with the fluorescent probes SYTOX Green and DiSC3(5), respectively, in a Varioskan Flash microplate reader (Thermo Scientific; Spain) using FluoroNunc 96-well plates (Thermo Scientific; Spain). For permeation assays, cells were grown to an OD550 ≈ 0.3, washed once with PBS pH 7.2 (3,800 × g, 7 min, room temperature), and adjusted to a final OD550 ≈ 0.4 (∼10^8 CFU/mL) with the same buffer before mixing in the dark with SYTOX Green (5 µM final concentration). One hundred µL of this suspension was dispensed per plate well and the signal stabilization was monitored for 15 min (λex = 485 nm; λem = 520 nm). Then, 100 µL of two-fold serially diluted lipopeptide samples was added and changes in fluorescence intensity were registered for 60 min at 37°C. SYTOX Green (900 Da) binds to intracellular DNA when the cell membrane is damaged, thereby increasing fluorescence intensity ([Roth et al., 1997]). Positive controls (100% membrane permeabilization) were carried out by adding Titron X-100 (0.01% final concentration) to untreated bacterial samples ([Rathinakumar et al., 2009]). For membrane depolarization assays, 180 µL of an OD550 ≈ 0.2 culture (BHI; ≈ 10^7 CFU/mL) supplemented with DiSC3(5) (1 µM final concentration) was distributed per well, and signal stabilization was registered for 30 min (λex = 622 nm; λem = 670 nm) ([Te Winkel et al., 2016]). Subsequently, 20 µL of a two-fold serial dilution of lipopeptide in culture medium was added, and fluorescence intensity was recorded for 60 min at 37°C. Partition of DiSC3(5) to the surface of polarized cells decreases the probe fluorescence, and its release, caused by membrane depolarization, results in an increase in fluorescence. […] The background signal of controls with bacterial cells without the fluorescent probe, as well as the dye fluorescence in the presence of the tested compounds without bacteria, were also registered. No change in the fluorescence intensity of the probes occurred upon DICAM addition in the absence of bacterial cells.

[9] = system: S. pyogenes T membrane; experiment: Membrane depolarization, DiSC3(5); format: cell-based, Streptococcus pyogenes; settings: S. pyogenes T in BHI, 37°C
Protocol: as §4

[10] = Calcein release from LUVs; settings: 10 μM DICAM, 25°C, vesicle buffer pH 7.4, calcein release
Protocol: as §3

Row | Substance | Retention time [1] [min] | Growth halt or lysis (50/100 μM), Spn [2] | Growth halt or lysis (50/100 μM), Ec [3] | Growth halt or lysis (50/100 μM), Pa [4] | Growth halt or lysis (50/100 μM), Sa T [5] | Growth halt or lysis (50/100 μM), Spy T [6] | Permeation of model membranes (LUVs), result in words [7] | Membrane permeation (SYTOX Green), result in words [8] | Membrane depolarization (DiSC3(5)), result in words [9] | Permeation of DOPE:POPG:CL (80:15:5) LUVs, result in words [10]
1 | Asn- Pro -NH-C18H37 · HCl [DICAM 13] | 20.18 | - | - | - | - | + | able to permeate all tested model membranes |  |  | 
2 | Asn- Pro -Tyr(Bzl)-NH-C18H37 ·HCl [DICAM 6] | 22.10 | - | - | - | - | - |  | no depolarization or membrane permeation | no depolarization | particularly effective
